Data taken from patent US11767310B2, “Nicotinamide RIPK1 inhibitors” (AbbVie Inc., priority 2021, dated 2023).
Like-named read-outs stand apart in the source and are kept apart here.

How the values were obtained:
PHKG1 = PHKG1 (Homo sapiens (Human), UniProt Q16816); assay: Kinase binding screen; conditions: read-out: Percent Control at 100 nM Compound Concentration
TNK2 = TNK2 (Homo sapiens (Human), UniProt Q07912); assay: Kinase binding screen; conditions: read-out: Percent Control at 100 nM Compound Concentration
[1] = target: TYK2(JH1domain-catalytic) (Homo sapiens (Human), UniProt P29597); assay: Kinase binding screen; conditions: read-out: Percent Control at 100 nM Compound Concentration
NEK6 = NEK6 (Homo sapiens (Human), UniProt Q9HC98); assay: Kinase binding screen; conditions: read-out: Percent Control at 100 nM Compound Concentration
EPHB6 = EPHB6 (Homo sapiens (Human), UniProt O15197); assay: Kinase binding screen; conditions: read-out: Percent Control at 100 nM Compound Concentration
PAK3 = PAK3 (Homo sapiens (Human), UniProt O75914); assay: Kinase binding screen; conditions: read-out: Percent Control at 100 nM Compound Concentration
PRKX = PRKX (Homo sapiens (Human), UniProt P51817); assay: Kinase binding screen; conditions: read-out: Percent Control at 100 nM Compound Concentration
PIP5K2B = PIP5K2B (Homo sapiens (Human), UniProt P78356); assay: Kinase binding screen; conditions: read-out: Percent Control at 100 nM Compound Concentration
ACVR1 = ACVR1 (Homo sapiens (Human), UniProt Q04771); assay: Kinase binding screen; conditions: read-out: Percent Control at 100 nM Compound Concentration
MST3 = MST3 (Homo sapiens (Human), UniProt Q9Y6E0); assay: Kinase binding screen; conditions: read-out: Percent Control at 100 nM Compound Concentration
LKB1 = LKB1 (Homo sapiens (Human), UniProt Q15831); assay: Kinase binding screen; conditions: read-out: Percent Control at 100 nM Compound Concentration
DYRK1B = DYRK1B (Homo sapiens (Human), UniProt Q9Y463); assay: Kinase binding screen; conditions: read-out: Percent Control at 100 nM Compound Concentration
ARK5 = ARK5 (Homo sapiens (Human), UniProt O60285); assay: Kinase binding screen; conditions: read-out: Percent Control at 100 nM Compound Concentration
FGFR3 = FGFR3 (Homo sapiens (Human), UniProt P22607); assay: Kinase binding screen; conditions: read-out: Percent Control at 100 nM Compound Concentration
[2] = target: ABL1(Q252H)-phosphorylated (Homo sapiens (Human), UniProt P00519, Q252H); assay: Kinase binding screen; conditions: read-out: Percent Control at 100 nM Compound Concentration
SIK = SIK (Homo sapiens (Human), UniProt P57059); assay: Kinase binding screen; conditions: read-out: Percent Control at 100 nM Compound Concentration
EPHB4 = EPHB4 (Homo sapiens (Human), UniProt P54760); assay: Kinase binding screen; conditions: read-out: Percent Control at 100 nM Compound Concentration
KIT-autoinhibited = KIT-autoinhibited (Homo sapiens (Human), UniProt P10721); assay: Kinase binding screen; conditions: read-out: Percent Control at 100 nM Compound Concentration
EGFR(E746-A750del) = EGFR(E746-A750del) (Homo sapiens (Human), UniProt P00533, DEL746-750); assay: Kinase binding screen; conditions: read-out: Percent Control at 100 nM Compound Concentration
FLT1 = FLT1 (Homo sapiens (Human), UniProt P17948); assay: Kinase binding screen; conditions: read-out: Percent Control at 100 nM Compound Concentration
TAOK1 = TAOK1 (Homo sapiens (Human), UniProt Q7L7X3); assay: Kinase binding screen; conditions: read-out: Percent Control at 100 nM Compound Concentration
non-mutant kinases = assay: Selectivity score (S-score) from kinase binding screen; design: species or system human; conditions: Screening Concentration 100 nM; 403 non-mutant kinases
Description: Based on the binding affinities in Table D, a selectivity score (S-score) was calculated for each compound as a quantitative measure of compound selectivity. The S-score is calculated by dividing the number of kinases that a compound binds to by the total number of distinct kinases tested, excluding mutant variants. The selectivity score value can be calculated using % Ctrl as a potency threshold, as shown below, and provides a quantitative method of describing compound selectivity to facilitate comparison of different compounds.
S(10)=(number of non-mutant kinases with % Ctrl<[…])/(number of non-mutant kinases tested).
[…]=(number of non-mutant kinases with % Ctrl<[…])/(number of non-mutant kinases tested).
[…]=(number of non-mutant kinases with % Ctrl<1)/(number of non-mutant kinases tested).

CAMK2A = CAMK2A (Homo sapiens (Human), UniProt Q9UQM7); assay: Kinase binding screen; conditions: read-out: Percent Control at 100 nM Compound Concentration
KIT(L576P) = KIT(L576P) (Homo sapiens (Human), UniProt P10721, L576P); assay: Kinase binding screen; conditions: read-out: Percent Control at 100 nM Compound Concentration
PFTAIRE2 = PFTAIRE2 (Homo sapiens (Human), UniProt Q96Q40); assay: Kinase binding screen; conditions: read-out: Percent Control at 100 nM Compound Concentration
LIMK1 = LIMK1 (Homo sapiens (Human), UniProt P53667); assay: Kinase binding screen; conditions: read-out: Percent Control at 100 nM Compound Concentration

Sequence of TAOK1 (Q7L7X3 whole entry): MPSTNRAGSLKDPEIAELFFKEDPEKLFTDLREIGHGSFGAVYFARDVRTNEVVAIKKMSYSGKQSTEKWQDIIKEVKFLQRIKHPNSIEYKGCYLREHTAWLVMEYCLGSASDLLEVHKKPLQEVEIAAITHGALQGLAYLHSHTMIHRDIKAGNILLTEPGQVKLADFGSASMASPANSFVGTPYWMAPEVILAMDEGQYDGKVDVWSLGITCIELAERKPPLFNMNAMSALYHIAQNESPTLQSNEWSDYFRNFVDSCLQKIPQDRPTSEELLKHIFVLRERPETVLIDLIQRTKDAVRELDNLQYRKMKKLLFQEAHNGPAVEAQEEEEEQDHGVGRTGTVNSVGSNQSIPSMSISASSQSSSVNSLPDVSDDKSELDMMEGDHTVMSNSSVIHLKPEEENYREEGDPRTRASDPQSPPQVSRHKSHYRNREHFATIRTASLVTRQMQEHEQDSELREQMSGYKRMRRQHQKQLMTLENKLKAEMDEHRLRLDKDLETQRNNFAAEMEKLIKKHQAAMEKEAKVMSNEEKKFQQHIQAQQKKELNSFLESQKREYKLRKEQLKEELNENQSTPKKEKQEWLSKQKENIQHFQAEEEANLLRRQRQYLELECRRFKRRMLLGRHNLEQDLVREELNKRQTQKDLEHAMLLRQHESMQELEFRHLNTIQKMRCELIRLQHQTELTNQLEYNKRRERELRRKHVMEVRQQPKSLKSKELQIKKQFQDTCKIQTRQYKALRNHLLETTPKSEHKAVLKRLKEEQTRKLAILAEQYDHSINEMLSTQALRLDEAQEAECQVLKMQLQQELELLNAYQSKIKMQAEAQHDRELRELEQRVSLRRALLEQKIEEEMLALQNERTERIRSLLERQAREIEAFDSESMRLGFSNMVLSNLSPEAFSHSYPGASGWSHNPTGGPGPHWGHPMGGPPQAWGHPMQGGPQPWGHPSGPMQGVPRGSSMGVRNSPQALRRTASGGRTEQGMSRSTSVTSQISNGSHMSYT
Sequence of LKB1 (Q15831 whole entry): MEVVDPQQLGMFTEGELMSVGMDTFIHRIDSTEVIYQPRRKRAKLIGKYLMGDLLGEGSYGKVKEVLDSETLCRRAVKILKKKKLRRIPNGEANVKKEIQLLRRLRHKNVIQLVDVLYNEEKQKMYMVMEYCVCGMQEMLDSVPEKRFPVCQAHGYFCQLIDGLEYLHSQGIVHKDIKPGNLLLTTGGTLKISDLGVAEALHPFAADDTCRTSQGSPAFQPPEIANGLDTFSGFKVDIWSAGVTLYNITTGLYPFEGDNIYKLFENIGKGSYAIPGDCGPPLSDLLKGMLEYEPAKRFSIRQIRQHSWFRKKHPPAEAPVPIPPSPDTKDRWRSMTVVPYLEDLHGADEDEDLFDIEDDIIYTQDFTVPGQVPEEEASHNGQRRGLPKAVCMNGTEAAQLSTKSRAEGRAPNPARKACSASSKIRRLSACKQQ
Sequence of PFTAIRE2 (Q96Q40 whole entry): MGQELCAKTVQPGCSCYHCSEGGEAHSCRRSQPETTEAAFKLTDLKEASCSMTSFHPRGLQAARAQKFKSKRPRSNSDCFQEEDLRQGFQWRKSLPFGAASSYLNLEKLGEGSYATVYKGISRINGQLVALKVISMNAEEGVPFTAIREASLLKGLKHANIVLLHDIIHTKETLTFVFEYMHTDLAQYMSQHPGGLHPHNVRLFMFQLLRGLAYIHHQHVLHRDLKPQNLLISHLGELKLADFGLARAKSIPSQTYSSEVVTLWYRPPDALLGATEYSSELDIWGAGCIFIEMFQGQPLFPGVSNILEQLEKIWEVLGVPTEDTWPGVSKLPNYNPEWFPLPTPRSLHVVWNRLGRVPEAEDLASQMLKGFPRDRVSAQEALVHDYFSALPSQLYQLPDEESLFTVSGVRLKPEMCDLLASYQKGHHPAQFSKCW
Sequence of EPHB6 (O15197 32-1021): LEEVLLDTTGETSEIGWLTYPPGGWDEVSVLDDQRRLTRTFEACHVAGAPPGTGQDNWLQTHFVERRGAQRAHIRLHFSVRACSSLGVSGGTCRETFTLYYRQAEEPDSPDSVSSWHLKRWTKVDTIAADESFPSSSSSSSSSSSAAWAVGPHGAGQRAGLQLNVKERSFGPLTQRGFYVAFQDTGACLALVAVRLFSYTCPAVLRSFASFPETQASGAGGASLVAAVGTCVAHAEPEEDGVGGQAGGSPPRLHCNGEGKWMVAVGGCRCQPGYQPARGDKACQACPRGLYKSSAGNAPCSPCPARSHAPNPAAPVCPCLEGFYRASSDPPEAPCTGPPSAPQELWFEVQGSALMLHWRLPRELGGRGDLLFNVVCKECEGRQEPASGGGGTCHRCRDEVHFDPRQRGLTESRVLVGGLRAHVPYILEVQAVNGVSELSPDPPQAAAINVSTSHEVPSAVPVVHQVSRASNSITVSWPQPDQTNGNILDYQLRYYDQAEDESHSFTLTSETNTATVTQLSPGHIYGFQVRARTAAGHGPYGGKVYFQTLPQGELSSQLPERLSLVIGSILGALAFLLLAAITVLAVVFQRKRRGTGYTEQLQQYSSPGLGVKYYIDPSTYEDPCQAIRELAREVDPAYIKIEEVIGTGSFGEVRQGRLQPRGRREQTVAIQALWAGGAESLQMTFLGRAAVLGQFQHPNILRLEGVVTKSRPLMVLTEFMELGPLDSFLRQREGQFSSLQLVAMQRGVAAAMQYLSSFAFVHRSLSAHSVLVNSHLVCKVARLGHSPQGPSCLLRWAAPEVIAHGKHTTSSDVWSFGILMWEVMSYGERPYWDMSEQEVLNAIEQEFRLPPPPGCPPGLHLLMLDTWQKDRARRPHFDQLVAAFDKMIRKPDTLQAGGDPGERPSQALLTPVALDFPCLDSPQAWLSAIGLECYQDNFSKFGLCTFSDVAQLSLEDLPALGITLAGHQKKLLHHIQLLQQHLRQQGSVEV
Sequence of PRKX (P51817 whole entry): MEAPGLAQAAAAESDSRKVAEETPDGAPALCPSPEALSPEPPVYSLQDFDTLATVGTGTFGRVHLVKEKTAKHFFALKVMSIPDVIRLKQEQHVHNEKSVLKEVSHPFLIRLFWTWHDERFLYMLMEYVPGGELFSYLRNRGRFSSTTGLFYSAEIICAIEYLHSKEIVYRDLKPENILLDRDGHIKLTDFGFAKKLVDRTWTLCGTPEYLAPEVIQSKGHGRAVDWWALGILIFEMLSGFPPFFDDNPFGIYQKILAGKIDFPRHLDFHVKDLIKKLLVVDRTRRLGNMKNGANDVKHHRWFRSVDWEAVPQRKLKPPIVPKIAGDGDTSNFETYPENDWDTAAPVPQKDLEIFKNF
Sequence of ACVR1 (Q04771 21-509): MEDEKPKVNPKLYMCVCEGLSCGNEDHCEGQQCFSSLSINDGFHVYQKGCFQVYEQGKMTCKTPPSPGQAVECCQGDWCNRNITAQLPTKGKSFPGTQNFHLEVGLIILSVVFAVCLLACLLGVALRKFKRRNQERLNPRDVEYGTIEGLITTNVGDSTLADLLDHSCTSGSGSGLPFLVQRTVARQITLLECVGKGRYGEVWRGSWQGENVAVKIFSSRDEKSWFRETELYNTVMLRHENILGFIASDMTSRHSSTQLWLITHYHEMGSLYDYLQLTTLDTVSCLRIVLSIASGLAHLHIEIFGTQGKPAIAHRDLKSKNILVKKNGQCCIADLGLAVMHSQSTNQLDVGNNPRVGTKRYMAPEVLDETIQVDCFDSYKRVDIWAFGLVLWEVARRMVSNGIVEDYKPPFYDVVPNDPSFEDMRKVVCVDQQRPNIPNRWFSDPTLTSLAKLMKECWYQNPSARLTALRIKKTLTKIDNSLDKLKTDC
Sequence of EPHB4 (P54760 16-987): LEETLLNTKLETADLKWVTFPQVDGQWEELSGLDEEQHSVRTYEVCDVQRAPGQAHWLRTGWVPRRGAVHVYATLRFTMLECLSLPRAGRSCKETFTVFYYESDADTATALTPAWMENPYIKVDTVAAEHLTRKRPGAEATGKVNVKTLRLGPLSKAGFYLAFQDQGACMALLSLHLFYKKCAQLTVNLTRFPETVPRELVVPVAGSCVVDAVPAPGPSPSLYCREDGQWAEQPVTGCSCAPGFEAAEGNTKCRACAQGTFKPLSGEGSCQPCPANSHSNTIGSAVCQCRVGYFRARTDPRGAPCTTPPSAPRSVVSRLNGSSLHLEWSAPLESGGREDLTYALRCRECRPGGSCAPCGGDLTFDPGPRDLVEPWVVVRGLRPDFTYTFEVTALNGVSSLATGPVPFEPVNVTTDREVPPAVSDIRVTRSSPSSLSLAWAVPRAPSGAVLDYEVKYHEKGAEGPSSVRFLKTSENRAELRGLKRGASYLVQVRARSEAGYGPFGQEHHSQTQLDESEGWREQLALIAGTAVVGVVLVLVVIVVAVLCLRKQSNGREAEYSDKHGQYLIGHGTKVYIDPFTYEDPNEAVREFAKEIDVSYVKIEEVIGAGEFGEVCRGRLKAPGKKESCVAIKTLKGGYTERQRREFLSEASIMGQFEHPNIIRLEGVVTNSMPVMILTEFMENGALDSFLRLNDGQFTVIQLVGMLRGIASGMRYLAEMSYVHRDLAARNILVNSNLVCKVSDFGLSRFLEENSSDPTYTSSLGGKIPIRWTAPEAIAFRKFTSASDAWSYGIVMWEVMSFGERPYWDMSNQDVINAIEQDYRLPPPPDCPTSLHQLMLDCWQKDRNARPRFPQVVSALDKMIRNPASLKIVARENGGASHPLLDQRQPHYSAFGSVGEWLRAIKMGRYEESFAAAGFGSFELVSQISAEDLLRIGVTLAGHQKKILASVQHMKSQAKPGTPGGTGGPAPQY
Sequence of NEK6 (Q9HC98 whole entry): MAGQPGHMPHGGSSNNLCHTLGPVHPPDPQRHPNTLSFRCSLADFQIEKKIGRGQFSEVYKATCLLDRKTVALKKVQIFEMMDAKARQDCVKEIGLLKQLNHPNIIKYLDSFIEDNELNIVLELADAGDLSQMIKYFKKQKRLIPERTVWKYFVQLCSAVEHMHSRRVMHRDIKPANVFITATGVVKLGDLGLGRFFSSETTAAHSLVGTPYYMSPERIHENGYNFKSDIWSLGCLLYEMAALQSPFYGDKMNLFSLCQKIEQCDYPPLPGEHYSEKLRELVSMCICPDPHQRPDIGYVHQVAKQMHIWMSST

CN(C[C@H](Cc1ccccc1)OP(=O)(O)O)C(=O)c1cncc(C#Cc2cnn(C(F)F)c2)c1 [Example 19, (S)-1-(5-((1-(difluoromethyl)-1H-pyrazol-4-yl)ethynyl)-N-methylnicotinamido)-3-phenylpropan-2-yl dihydrogen phosphate]
remaining activity at 0.1 µM (PHKG1): 100% | remaining activity at 0.1 µM (TNK2): 100% | remaining activity at 0.1 µM [1]: 100% | remaining activity at 0.1 µM (NEK6): 100% | remaining activity at 0.1 µM (EPHB6): 100% | remaining activity at 0.1 µM (PAK3): 100% | remaining activity at 0.1 µM (PRKX): 100% | remaining activity at 0.1 µM (PIP5K2B): 95% | remaining activity at 0.1 µM (ACVR1): 100% | remaining activity at 0.1 µM (MST3): 100% | remaining activity at 0.1 µM (LKB1): 79% | remaining activity at 0.1 µM (DYRK1B): 79% | remaining activity at 0.1 µM (ARK5): 100% | remaining activity at 0.1 µM (FGFR3): 100% | remaining activity at 0.1 µM [2]: 99% | remaining activity at 0.1 µM (SIK): 100% | remaining activity at 0.1 µM (EPHB4): 100% | remaining activity at 0.1 µM (KIT-autoinhibited): 94% | remaining activity at 0.1 µM (EGFR(E746-A750del)): 94% | remaining activity at 0.1 µM (FLT1): 100% | remaining activity at 0.1 µM (TAOK1): 100% | Number of Hits S(1) (non-mutant kinases): 0 | Number of Hits S(10) (non-mutant kinases): 0 | Number of Hits S(35) (non-mutant kinases): 0 | remaining activity at 0.1 µM (CAMK2A): 100% | remaining activity at 0.1 µM (KIT(L576P)): 98% | remaining activity at 0.1 µM (PFTAIRE2): 100% | remaining activity at 0.1 µM (LIMK1): 100%

CN(C[C@@H](O)Cc1ccccc1)C(=O)c1cncc(C#Cc2cnn(C(F)F)c2)c1 [Example 2, (S)-5-((1-(difluoromethyl)-1H-pyrazol-4-yl)ethynyl)-N-(2-hydroxy-3-phenylpropyl)-N-methylnicotinamide]
remaining activity at 0.1 µM (PHKG1; PHKG1): 100% | remaining activity at 0.1 µM (TNK2; TNK2): 100% | remaining activity at 0.1 µM ([1]; TYK2(JH1domain-catalytic)): 100% | remaining activity at 0.1 µM (NEK6; NEK6): 100% | remaining activity at 0.1 µM (EPHB6; EPHB6): 100% | remaining activity at 0.1 µM (PAK3; PAK3): 71% | remaining activity at 0.1 µM (PRKX; PRKX): 100% | remaining activity at 0.1 µM (PIP5K2B; PIP5K2B): 100% | remaining activity at 0.1 µM (ACVR1; ACVR1): 100% | remaining activity at 0.1 µM (MST3; MST3): 100% | remaining activity at 0.1 µM (LKB1; LKB1): 70% | remaining activity at 0.1 µM (DYRK1B; DYRK1B): 97% | remaining activity at 0.1 µM (ARK5; ARK5): 100% | remaining activity at 0.1 µM (FGFR3; FGFR3): 100% | remaining activity at 0.1 µM ([2]; ABL1(Q252H)-phosphorylated): 99% | remaining activity at 0.1 µM (SIK; SIK): 100% | remaining activity at 0.1 µM (EPHB4; EPHB4): 100% | remaining activity at 0.1 µM (KIT-autoinhibited; KIT-autoinhibited): 94% | remaining activity at 0.1 µM (EGFR(E746-A750del); EGFR(E746-A750del)): 100% | remaining activity at 0.1 µM (FLT1; FLT1): 100% | remaining activity at 0.1 µM (TAOK1; TAOK1): 100% | Number of Hits S(1) (non-mutant kinases): 0 | Number of Hits S(10) (non-mutant kinases): 1 | Number of Hits S(35) (non-mutant kinases): 3 | Selectivity Score S(10) (non-mutant kinases): 0.002 | Selectivity Score S(35) (non-mutant kinases): 0.007 | remaining activity at 0.1 µM (CAMK2A; CAMK2A): 97% | remaining activity at 0.1 µM (KIT(L576P); KIT(L576P)): 100% | remaining activity at 0.1 µM (PFTAIRE2; PFTAIRE2): 100% | remaining activity at 0.1 µM (LIMK1; LIMK1): 100%
